Laboratory results published in patent US20100056596A1, “RESISTANCE-REPELLENT RETROVIRAL PROTEASE INHIBITORS” (Sequoia Pharmaceuticals, priority 2004, published 2010).
Read-outs that look alike come from different tables or passages of the source.

Columns and labels:
wild type HIV-1 protease = target: T1, wild type HIV-1 protease (Human immunodeficiency virus type 1 group M subtype B, UniProt P04585); assay: Ki against wild type (WT) HIV-1 protease; format: biochemical
T1 construct: over 45 of the 99 amino acids of the HIV protease monomer

HIV-1 protease Mutant 9 = HIV-1 protease Mutant 9 (Human immunodeficiency virus type 1, UniProt P04585); assay: Ki against HIV-1 protease Mutant 9; format: biochemical
HIV-1 isolates, Mutant 9 = assay: In vitro drug sensitivity of HIV-1 laboratory isolates, Mutant 9; format: cell-based
Method: (§1) In Vitro Drug Sensitivity of HIV-1 Laboratory Isolates to PIs
(§2) The sensitivities of HIV-1 isolates against compounds of the invention were determined as previously described with minor modifications (Shiraska et al., Proc. Natl. Acad. Sci. USA, 92, 2398-2402 (1995)).

HIV-1 isolates, Mutant 8 = assay: In vitro drug sensitivity of HIV-1 laboratory isolates, Mutant 8; format: cell-based
Method: as §1, §2

HIV-1 protease Mutant 8 = HIV-1 protease Mutant 8 (Human immunodeficiency virus type 1, UniProt P04585); assay: Ki against HIV-1 protease Mutant 8; format: biochemical
HIV-1 isolates, WT = assay: In vitro drug sensitivity of HIV-1 laboratory isolates, WT; format: cell-based
Method: as §1, §2

[1] = Mutant 9, read-out: IC50 Mutant 9
[2] = Mutant 8, read-out: IC50 Mutant 8
[3] = Human immunodeficiency virus 1, read-out: IC50 Mutant 9
[4] = Human immunodeficiency virus 1, read-out: IC50 Mutant 8
[5] = Human immunodeficiency virus 1, HIV-1 isolate WT

Row | SMILES | Ki (wild type HIV-1 protease; WT) [nM] | Ki (HIV-1 protease Mutant 9; Mutant 9) [nM] | IC50 (HIV-1 isolates, Mutant 9; [1]) [nM] | IC50 (HIV-1 isolates, Mutant 8; [2]) [nM] | Ki (HIV-1 protease Mutant 8; Mutant 8) [nM] | IC50 (HIV-1 isolates, WT; WT) [nM] | Ki (wild type HIV-1 protease; wild type HIV-1 protease) [nM] | Ki (HIV-1 protease Mutant 9; HIV-1 protease Mutant 9) [nM] | IC50 (HIV-1 isolates, Mutant 9; [3]) [nM] | IC50 (HIV-1 isolates, Mutant 8; [4]) [nM] | Ki (HIV-1 protease Mutant 8; HIV-1 protease Mutant 8) [nM] | IC50 (HIV-1 isolates, WT; [5]) [nM] | IC50 (HIV-1 isolates, WT; Human immunodeficiency virus 1) [nM]
1 | CCOC(=O)N(CCOC)Cc1coc2ccc(S(=O)(=O)N(CC(C)C)C[C@@H](O)[C@H](Cc3ccccc3)NC(=O)OC3COC4OCCC34)cc12 (stereo partly drawn) [Compound 126] | < 0.1 | 0.92 | 250 | 60 | < 0.3 | 4 |  |  |  |  |  |  | 
2 | CC(C)CN(CC(O)C(Cc1ccccc1)NC(=O)OC1COC2OCCC12)S(=O)(=O)c1ccc2onc(CS(C)(=O)=O)c2c1 (stereo not drawn) [Compound 243] |  |  |  |  |  |  | < 0.1 | 0.96 | 120 | 24 | < 0.3 | 8.2 | 
3 | CC(C)CN(CC(O)C(Cc1ccccc1)NC(=O)OC1COC2OCCC12)S(=O)(=O)c1ccc2onc(CNS(=O)(=O)C(C)C)c2c1 (stereo not drawn) [Compound 204] |  |  |  |  |  |  | < 0.1 | 0.14 | 83 | 31 | < 0.3 | 6.5 | 
4 | CCCC(C)Nc1n[nH]c2ccc(S(=O)(=O)N(CC(C)C)CC(O)C(Cc3ccccc3)NC(=O)OC3COC4OCCC34)cc12 (stereo not drawn) [Compound 303] | < 0.1 | 0.73 |  |  | < 0.3 |  |  |  | 150 | 18 |  |  | 10
5 | CC(C)CN(CC(O)C(Cc1ccccc1)NC(=O)OC1COC2OCCC12)S(=O)(=O)c1ccc2onc(CNC(=O)C(C)C)c2c1 (stereo not drawn) [Compound 220] |  |  |  |  |  |  | < 0.1 | 0.14 | 60 | 12 | < 0.3 | 7 | 
6 | CC(C)CN(CC(O)C(Cc1ccccc1)NC(=O)OC1COC2OCCC12)S(=O)(=O)c1ccc2onc(CNS(C)(=O)=O)c2c1 (stereo not drawn) [Compound 207] |  |  |  |  |  |  | < 0.1 | 0.34 | 54 | 28 | < 0.3 | 22 | 
7 | CC(C)CN(C[C@@H](O)[C@H](Cc1ccccc1)NC(=O)OC1COC2OCCC12)S(=O)(=O)c1ccc2occ(CNC(=O)CNC(=O)OCc3ccccc3)c2c1 (stereo partly drawn) [Compound 116] | < 0.1 | 0.41 | 58 | 50 | < 0.3 | 15 |  |  |  |  |  |  | 
8 | CC(C)CN(CC(O)C(Cc1ccccc1)NC(=O)OC1COC2OCCC12)S(=O)(=O)c1ccc2[nH]nc(NCC(C)(C)C)c2c1 (stereo not drawn) [Compound 309] | 0.13 | 3.5 |  |  | < 0.3 |  |  |  | 250 | 25 |  |  | 4
9 | CC(C)CN(C[C@@H](O)[C@H](Cc1ccccc1)NC(=O)OC1CO[C@H]2OCC[C@@H]12)S(=O)(=O)c1ccc2c(c1)CCO2 (stereo partly drawn) | < 0.1 | 1.5 |  |  | < 0.3 |  |  |  | 157 | 13 |  |  | 1
10 | CC(C)CN(CC(O)C(Cc1ccccc1)NC(=O)OC1COC2OCCC12)S(=O)(=O)c1ccc2[nH]nc(NCc3ccccc3)c2c1 (stereo not drawn) [Compound 306] | 0.1 | 1.1 |  |  | < 0.3 |  |  |  | 95 | 35 |  |  | 5.5
11 | CC(C)CN(CC(O)C(Cc1ccccc1)NC(=O)OC1COC2OCCC12)S(=O)(=O)c1ccc2occ(CNS(=O)(=O)C(C)C)c2c1 (stereo not drawn) [Compound 115] | < 0.1 | 0.27 |  |  | < 0.3 |  |  |  | 64 | 18 |  |  | 6
12 | CCC(CC)Nc1n[nH]c2ccc(S(=O)(=O)N(CC(C)C)CC(O)C(Cc3ccccc3)NC(=O)OC3COC4OCCC34)cc12 (stereo not drawn) [Compound 307] | < 0.1 | 0.55 |  |  | < 0.3 |  |  |  | 110 | 24 |  |  | 7.5
